Reference: ChEMBL document CHEMBL5113374, “Research progress in biological activities of isochroman derivatives” (Eur J Med Chem, 2021)
Converted amounts (≈) assume the structure as drawn.

How the values were obtained:
[1] = system: Lasiodiplodia theobromae; assay: Antifungal activity against Lasiodiplodia theobromae assessed as fungal growth inhibition at 100 ug/ml incubated for 4 days by disk method; assay type: functional; conditions: 96 h, time 4 day
[2] = biological target: T1, Acetylcholinesterase (Homo sapiens, UniProt P22303); assay: Inhibition of AChE in human erythrocytes using acetylthiocholine iodide as substrate at 50 uM incubated for 20 mins by DTNB reagent based Ellman's method; assay type: cell-based; conditions: Erythrocyte
[3] = biological target: Beta-1 adrenergic receptor (Rattus norvegicus) (UniProt P18090); assay: Antagonist activity against beta1 adrenoceptor in Sprague-Dawley rat incubated for 5 mins; conditions: filed as antagonist
[4] = biological target: T1, Acetylcholinesterase; assay: Inhibition of AChE (unknown origin) using acetylthiocholine iodide as substrate incubated for 10 mins by DTNB reagent based Ellman's method
[5] = species: Homo sapiens; assay: Selectivity index, ratio of IC50 for […] (unknown origin)
[6] = system: Rattus norvegicus; assay: Antisecretory activity in Sprague-Dawley rat assessed as inhibition of gastric acid accumulation at 20 mg/kg,ID; assay type: functional
[7] = system: Rattus norvegicus; assay: Anti-ulcerative activity in aspirin induced Sprague-Dawley rat ulcer model assessed as inhibition of ulcer index at 20 mg/kg,po; assay type: functional
[8] = system: NCI-H460; assay: Antiproliferative activity against human NCI-H460 assessed as cell growth inhibition at 100 uM by SRB assay based spectrophotometric analysis; assay type: functional
[9] = species: Rattus norvegicus; assay: Antiallergic activity in Wistar rat abdominal cavity assessed as inhibition of C48/80-induced histamine release at 0.0005 M incubated for 30 mins by OPT-fluorophore based spectrofluorometric analysis; assay type: functional; conditions: 0.5 h
[10] = system: Mus musculus; assay: Analgesic activity in po dosed phenylquinone induced mouse assessed as assessed as reduction in phenylquinone induced writhing; assay type: functional
[11] = system: L5178Y; assay: Cytotoxicity against […] assessed as inhibition of cell viability at 10 ug/ml; assay type: functional; conditions: Mus musculus
[12] = system: Aspergillus flavus; assay: Antifungal activity against Aspergillus flavus assessed as fungal growth inhibition incubated for 1 hrs by disk diffusion assay; assay type: functional
[13] = system: Pseudomonas aeruginosa; assay: Antibacterial activity against Pseudomonas aeruginosa ATTC-27853 assessed as bacterial growth inhibition incubated for 24 hrs by disk diffusion assay; assay type: functional
[14] = system: Klebsiella pneumoniae; assay: Antibacterial activity against Klebsiella pneumoniae assessed as bacterial growth inhibition incubated for 24 hrs by disk diffusion assay; assay type: functional
[15] = system: Staphylococcus aureus; assay: Antibacterial activity against Staphylococcus aureus ATTC-25923 assessed as bacterial growth inhibition incubated for 24 hrs by disk diffusion assay; assay type: functional
[16] = system: Aspergillus fumigatus; assay: Antifungal activity against Aspergillus fumigatus assessed as fungal growth inhibition incubated for 1 hrs by disk diffusion assay; assay type: functional
[17] = system: Trichophyton mentagrophytes; assay: Antifungal activity against Trichophyton mentagrophytes assessed as fungal growth inhibition incubated for 1 hrs by disk diffusion assay; assay type: functional
[18] = system: Talaromyces marneffei; assay: Antifungal activity against Penicillium marneffei assessed as fungal growth inhibition incubated for 1 hrs by disk diffusion assay; assay type: functional
[19] = system: Escherichia coli; assay: Antibacterial activity against Escherichia coli ATTC-25922 assessed as bacterial growth inhibition incubated for 24 hrs by disk diffusion assay; assay type: functional
[20] = biological target: Sigma intracellular receptor 2 (Rattus norvegicus, UniProt Q5U3Y7); assay: Displacement of [3H]DTG from sigma 2 receptor in Sprague-Dawley rat liver membranes measured after 120 mins by liquid scintillation counting method; assay type: cell membranes, Membrane
[21] = system: Oocyte; assay: Antagonist activity at human dopamine D4 receptor polymorphic variant 4 expressed in Xenopus laevis oocytes at 1 uM incubated for 2 mins; assay type: cell-based; conditions: filed as antagonist
[22] = system: Oocyte; assay: Antagonist activity at human dopamine D4 receptor polymorphic variant 7 expressed in Xenopus laevis oocytes at 1 uM incubated for 2 mins; assay type: cell-based
[23] = system: Oocyte; assay: Antagonist activity at human dopamine D4 receptor polymorphic variant 2 expressed in Xenopus laevis oocytes at 1 uM incubated for 2 mins; assay type: cell-based; conditions: filed as antagonist
[24] = biological target: T2, DNA gyrase (Escherichia coli, UniProt P0AES4+P0AES6); assay: Inhibition of Escherichia coli DNA gyrase supercoiling activity using pBR322 DNA as substrate incubated for 2 hrs by ethidium bromide/bromophenol blue staining based agarose gel electrophoresis analysis; assay type: protein-complex assay
[25] = biological target: T2, DNA gyrase; assay: Inhibition of Escherichia coli DNA gyrase assessed as inhibition of relaxation of supercoiled plasmid pBR322 DNA incubated for 2 hrs by ethidium bromide/bromophenol blue staining based agarose gel electrophoresis analysis; assay type: protein-complex assay
[26] = biological target: DNA topoisomerase 2 (Drosophila melanogaster, UniProt P15348); assay: Inhibition of Drosophila topoisomerase II assessed as relaxation of supercoiled plasmid pBR322 DNA incubated for 30 mins by ethidium bromide staining based agarose gel electrophoresis
[27] = biological target: Glutamate NMDA receptor (Rattus norvegicus) (UniProt P35439+Q00959+Q00960+Q00961+Q62645+Q8VHN2+Q9R1M7); assay: Displacement of 3H-(+)-MK 801 from NMDA receptor in rat brain incubated for 80 mins by liquid scintillation counting method; assay type: tissue-based; conditions: filed as antagonist
[28] = species: Mus musculus; assay: Analgesic activity in acetic acid induced mouse assessed as assessed as reduction in acetic acid induced writhing […]; assay type: functional, organism-based
[29] = Antioxidant activity assessed as hydroxy radical scavenging activity by HPLC analysis; assay type: functional
[30] = Antioxidant activity assessed as Ferric ion reducing activity by FRAP assay based HPLC analysis; assay type: functional
[31] = Antioxidant activity assessed as DPPH radical scavenging activity by HPLC analysis; assay type: functional
[32] = system: KB; assay: Antiproliferative activity against human KB cells assessed as cell growth inhibition incubated for 48 hrs by coulter counter method; assay type: functional; conditions: read-out: ID50 (the source's name)
[33] = biological target: D(4) dopamine receptor (Homo sapiens, UniProt P21917); assay: Displacement of spiperone from human dopamine D4 receptor expressed in CHO cell membrane incubated for 1 hr by competitive radioligand binding assay based; assay type: cell membranes
[34] = biological target: 5-hydroxytryptamine receptor 1B (Homo sapiens, UniProt P28222); assay: Displacement of [3H]serotonin from recombinant human 5-HT1B receptor expressed in HEK293 cells incubated for 1 hr by competitive radioligand binding assay based; assay type: cell-based
[35] = Selectivity index, ratio of Ki for displacement of [3H]-(+)-pentazocine from sigma1 receptor in guinea pig brain membrane to Ki for displacement of [3H]DTG from sigma 2 receptor in Sprague-Dawley rat liver membranes; assay type: cell membranes
[36] = biological target: Sigma non-opioid intracellular receptor 1 (Cavia porcellus, UniProt Q60492); assay: Displacement of [3H](+)-pentazocine from sigma 1 receptor in guinea pig brain membranes measured after 150 mins by liquid scintillation counting method; assay type: cell membranes, Membrane
[37] = system: HL-60; assay: Cytotoxicity against human HL-60 cells; assay type: functional, cell-based
[38] = biological target: D(1A) dopamine receptor (Sus scrofa, UniProt P50130); assay: Displacement of [3H]SCH-23390 from porcine striatum dopamine D1 receptor incubated for 30 mins by radioligand competition binding assay based scintillation counter analysis; assay type: tissue-based
[39] = Displacement of [3H]SCH-23390 from porcine striatum dopamine D2 receptor incubated for 30 mins by radioligand competition binding assay based scintillation counter analysis; assay type: tissue-based, Sus scrofa

T1 sequence (P22303 whole entry): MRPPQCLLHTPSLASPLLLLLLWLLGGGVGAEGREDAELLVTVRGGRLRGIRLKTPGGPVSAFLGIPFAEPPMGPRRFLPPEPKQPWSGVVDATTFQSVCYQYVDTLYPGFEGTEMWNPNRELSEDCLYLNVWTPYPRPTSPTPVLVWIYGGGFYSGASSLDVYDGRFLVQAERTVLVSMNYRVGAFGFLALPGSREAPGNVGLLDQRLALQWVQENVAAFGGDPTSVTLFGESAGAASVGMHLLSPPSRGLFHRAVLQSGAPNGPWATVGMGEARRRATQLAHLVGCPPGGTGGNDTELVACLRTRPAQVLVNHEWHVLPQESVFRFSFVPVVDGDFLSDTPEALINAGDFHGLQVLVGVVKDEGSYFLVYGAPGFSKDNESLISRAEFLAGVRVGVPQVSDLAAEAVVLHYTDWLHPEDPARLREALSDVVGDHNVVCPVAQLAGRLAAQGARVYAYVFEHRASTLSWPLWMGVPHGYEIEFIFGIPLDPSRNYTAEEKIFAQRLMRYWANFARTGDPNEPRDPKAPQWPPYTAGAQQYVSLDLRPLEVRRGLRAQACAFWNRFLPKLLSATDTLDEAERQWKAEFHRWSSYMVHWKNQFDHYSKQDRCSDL
Sequence of Beta-1 adrenergic receptor (Rattus norvegicus) (P18090 whole entry, looked up): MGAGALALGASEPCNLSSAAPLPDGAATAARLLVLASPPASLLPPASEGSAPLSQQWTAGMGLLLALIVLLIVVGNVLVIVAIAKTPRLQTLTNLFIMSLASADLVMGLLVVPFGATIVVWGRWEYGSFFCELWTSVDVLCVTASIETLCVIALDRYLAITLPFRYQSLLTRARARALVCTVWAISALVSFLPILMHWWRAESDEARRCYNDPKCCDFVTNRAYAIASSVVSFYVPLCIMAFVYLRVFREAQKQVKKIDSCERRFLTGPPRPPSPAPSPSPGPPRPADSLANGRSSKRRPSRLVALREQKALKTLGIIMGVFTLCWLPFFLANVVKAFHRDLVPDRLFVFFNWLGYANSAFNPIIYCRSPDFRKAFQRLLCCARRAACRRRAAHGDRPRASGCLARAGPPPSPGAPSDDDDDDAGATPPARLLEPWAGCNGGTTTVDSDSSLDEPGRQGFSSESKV
Sequence of 5-hydroxytryptamine receptor 1B (P28222 whole entry): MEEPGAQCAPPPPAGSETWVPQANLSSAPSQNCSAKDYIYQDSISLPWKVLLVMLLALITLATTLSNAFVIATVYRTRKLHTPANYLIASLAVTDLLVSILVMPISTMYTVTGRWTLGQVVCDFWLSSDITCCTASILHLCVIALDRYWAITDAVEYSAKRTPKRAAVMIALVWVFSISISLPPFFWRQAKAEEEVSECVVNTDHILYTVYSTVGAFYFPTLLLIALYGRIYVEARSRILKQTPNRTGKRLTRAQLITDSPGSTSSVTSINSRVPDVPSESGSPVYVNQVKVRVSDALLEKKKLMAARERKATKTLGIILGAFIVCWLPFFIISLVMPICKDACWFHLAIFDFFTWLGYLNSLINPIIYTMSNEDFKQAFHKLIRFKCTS
Sequence of DNA topoisomerase 2 (P15348 whole entry): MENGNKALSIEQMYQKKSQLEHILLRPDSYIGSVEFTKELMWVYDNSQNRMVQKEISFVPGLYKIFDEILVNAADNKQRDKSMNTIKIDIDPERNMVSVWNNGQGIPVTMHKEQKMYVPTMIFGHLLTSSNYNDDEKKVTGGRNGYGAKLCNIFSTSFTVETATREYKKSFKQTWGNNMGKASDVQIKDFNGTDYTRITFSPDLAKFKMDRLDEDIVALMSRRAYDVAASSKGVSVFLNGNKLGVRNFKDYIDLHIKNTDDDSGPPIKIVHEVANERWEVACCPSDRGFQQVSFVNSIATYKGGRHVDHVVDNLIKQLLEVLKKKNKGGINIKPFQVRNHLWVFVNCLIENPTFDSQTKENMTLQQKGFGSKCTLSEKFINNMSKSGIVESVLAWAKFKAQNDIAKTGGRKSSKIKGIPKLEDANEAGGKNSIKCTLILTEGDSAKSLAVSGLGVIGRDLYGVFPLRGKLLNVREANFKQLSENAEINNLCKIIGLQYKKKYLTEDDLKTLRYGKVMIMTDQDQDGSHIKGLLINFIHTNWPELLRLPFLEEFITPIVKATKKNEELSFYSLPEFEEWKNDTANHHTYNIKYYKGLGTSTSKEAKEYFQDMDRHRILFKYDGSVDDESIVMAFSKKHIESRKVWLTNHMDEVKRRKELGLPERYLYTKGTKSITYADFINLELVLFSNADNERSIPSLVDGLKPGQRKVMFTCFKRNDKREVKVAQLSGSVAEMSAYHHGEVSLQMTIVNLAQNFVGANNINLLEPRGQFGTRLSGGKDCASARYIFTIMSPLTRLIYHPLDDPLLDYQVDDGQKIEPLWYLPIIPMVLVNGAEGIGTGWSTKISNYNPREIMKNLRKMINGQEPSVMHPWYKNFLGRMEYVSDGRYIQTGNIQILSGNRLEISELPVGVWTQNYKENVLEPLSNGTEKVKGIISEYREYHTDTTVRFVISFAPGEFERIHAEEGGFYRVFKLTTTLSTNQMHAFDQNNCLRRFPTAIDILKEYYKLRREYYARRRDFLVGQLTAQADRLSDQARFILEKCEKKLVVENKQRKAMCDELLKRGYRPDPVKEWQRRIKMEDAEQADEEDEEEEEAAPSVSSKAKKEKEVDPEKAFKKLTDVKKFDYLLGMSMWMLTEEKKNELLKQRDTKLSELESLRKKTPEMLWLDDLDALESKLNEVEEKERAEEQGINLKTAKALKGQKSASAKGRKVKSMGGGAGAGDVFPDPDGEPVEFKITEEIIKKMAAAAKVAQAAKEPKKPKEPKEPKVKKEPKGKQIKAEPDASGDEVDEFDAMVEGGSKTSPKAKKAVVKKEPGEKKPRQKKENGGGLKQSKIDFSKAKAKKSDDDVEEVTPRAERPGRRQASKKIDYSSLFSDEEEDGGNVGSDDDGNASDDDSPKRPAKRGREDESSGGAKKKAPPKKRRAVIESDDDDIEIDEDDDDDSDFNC
Sequence of D(1A) dopamine receptor (P50130 whole entry): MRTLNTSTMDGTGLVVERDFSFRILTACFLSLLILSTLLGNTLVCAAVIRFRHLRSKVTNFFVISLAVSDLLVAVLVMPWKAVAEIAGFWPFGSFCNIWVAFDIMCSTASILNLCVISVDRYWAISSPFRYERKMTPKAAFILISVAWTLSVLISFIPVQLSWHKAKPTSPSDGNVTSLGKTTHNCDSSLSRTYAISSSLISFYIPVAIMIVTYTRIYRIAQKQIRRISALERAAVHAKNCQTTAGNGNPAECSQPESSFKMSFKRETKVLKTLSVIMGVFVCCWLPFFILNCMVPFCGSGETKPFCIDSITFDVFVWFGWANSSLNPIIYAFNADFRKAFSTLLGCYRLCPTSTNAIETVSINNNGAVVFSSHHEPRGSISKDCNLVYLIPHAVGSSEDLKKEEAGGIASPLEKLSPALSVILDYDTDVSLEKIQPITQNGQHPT
Sequence of D(4) dopamine receptor (P21917 whole entry): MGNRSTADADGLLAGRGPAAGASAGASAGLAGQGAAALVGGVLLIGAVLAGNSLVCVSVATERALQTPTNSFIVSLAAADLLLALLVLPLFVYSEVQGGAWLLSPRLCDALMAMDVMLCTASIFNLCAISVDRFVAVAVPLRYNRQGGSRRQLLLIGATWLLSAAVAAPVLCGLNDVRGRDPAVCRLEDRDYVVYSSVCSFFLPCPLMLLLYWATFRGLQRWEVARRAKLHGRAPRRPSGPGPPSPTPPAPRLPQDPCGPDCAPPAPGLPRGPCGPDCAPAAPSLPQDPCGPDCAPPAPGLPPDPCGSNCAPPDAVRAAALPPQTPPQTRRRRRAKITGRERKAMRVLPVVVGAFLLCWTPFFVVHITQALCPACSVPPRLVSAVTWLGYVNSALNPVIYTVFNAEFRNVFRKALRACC
Sequence of Sigma non-opioid intracellular receptor 1 (Q60492 whole entry): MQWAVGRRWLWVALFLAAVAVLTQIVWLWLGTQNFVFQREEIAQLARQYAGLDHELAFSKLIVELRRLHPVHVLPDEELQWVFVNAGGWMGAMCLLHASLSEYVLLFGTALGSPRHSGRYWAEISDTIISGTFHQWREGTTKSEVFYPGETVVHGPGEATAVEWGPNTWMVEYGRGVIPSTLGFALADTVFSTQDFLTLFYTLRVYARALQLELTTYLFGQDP
Sequence of Sigma intracellular receptor 2 (Q5U3Y7 whole entry): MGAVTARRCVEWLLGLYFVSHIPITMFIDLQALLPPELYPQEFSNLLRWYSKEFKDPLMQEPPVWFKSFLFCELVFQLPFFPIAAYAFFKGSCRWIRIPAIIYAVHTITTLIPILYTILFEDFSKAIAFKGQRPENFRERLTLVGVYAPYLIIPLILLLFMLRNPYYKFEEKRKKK

SMILES: COc1cc(O)c(C)c2c1[C@@H](OC)O[C@@H](C)C2
- inhibition at 100 µg/mL [1]: 76%

SMILES: COC1(C)Cc2c(C=O)c(O)c(Cc3c(O)c(C=O)c4c(c3O)COC(C)=C4)c(O)c2CO1 (stereo unspecified)
- inhibition [2]: 55%

SMILES: CCCNCC(O)CC/N=C1\COCc2c1ccc(OC)c2OC (stereo unspecified)
- inhibition [3]: 62.9%

SMILES: CCOC1OC(C)Cc2c(C)c(O)cc(OC)c21 (stereo unspecified)
- inhibition at 100 µg/mL [1]: 74%

SMILES: COC1(C)Cc2c(C=O)c(O)c(C)c(O)c2CO1 (stereo unspecified)
- inhibition [2]: -1%

SMILES: COc1cc2c(cc1OC)C(=O)/C(=C/c1cc[n+](Cc3ccc(F)cc3)cc1)OC2
- IC50 [4]: 0.00015 µM
- Ratio IC50 [5]: > 5000

SMILES: CC(CC1CCCc2ccccc21)NCC(C)c1ccccc1 (stereo unspecified)
- inhibition in vivo at 20 mg/kg [6]: 71.3%
- inhibition in vivo at 20 mg/kg [7]: 3.2%

SMILES: COC(=O)Cc1cc2c(cc1C(=O)c1ccc(N)cc1)OCO2
- inhibition at 100 µM [8]: 4%

SMILES: O=C1OCC2(CCN(CCc3ccccc3)CC2)c2ccccc21
- inhibition in vivo at 500 µM [9]: 94%
- ED50 [10]: 60 mg/kg

SMILES: COc1cc(O)cc2c1C(=O)O[C@@H](C)C2
- inhibition at 10 µg/mL [11]: 13.7%

SMILES: COc1cccc(Nc2nnc(C3(C)OCCc4cc(OC)c(OC)c(OC)c43)s2)c1 (stereo unspecified)
- MIC [12]: 6.25 µg/mL (≈ 14.1 µM)
- MIC [13]: 6.25 µg/mL (≈ 14.1 µM)
- MIC [14]: 6.25 µg/mL (≈ 14.1 µM)
- MIC [15]: 6.25 µg/mL (≈ 14.1 µM)
- MIC [16]: 6.25 µg/mL (≈ 14.1 µM)
- MIC [17]: 6.25 µg/mL (≈ 14.1 µM)
- MIC [18]: 6.25 µg/mL (≈ 14.1 µM)
- MIC [19]: 6.25 µg/mL (≈ 14.1 µM)

SMILES: N#CC1Cc2ccccc2C2(CCN(Cc3ccccc3)CC2)O1 (stereo unspecified)
- Ki [20]: 1.59 µM

SMILES: COc1cc(O)c(C)c2c1CO[C@@H](C)[C@@H]2O
- inhibition at 10 µg/mL [11]: 26.2%

SMILES: COc1ccc(N2CCN(CC[C@@H]3O[C@@H](C)Cc4cc(OC)c(OC)cc43)CC2)cc1
- inhibition [21]: 46%
- inhibition [22]: 33%
- inhibition [23]: 66%

SMILES: CC1=Cc2c(C=O)c(O)c(C)c(O)c2CO1
- inhibition [2]: -2%

SMILES: C[C@H]1Cc2cc3c(cc2[C@H](c2ccc(N)cc2)O1)OCO3
- inhibition at 100 µM [8]: 67%

SMILES: COc1cc(O)cc2c1CO[C@@H](C)C2
- inhibition at 10 µg/mL [11]: 16.1%

SMILES: CCCCCCC[C@H]1Cc2cc(O)c(C(=O)O)c(O)c2[C@@H](O)O1
- IC50 [24]: 18.5 µM
- IC50 [25]: 27.7 µM
- IC50 [26]: 3.08 µM

SMILES: CC1=Cc2c(C=O)c(O)c(Cc3c(O)c(C=O)c4c(c3O)COC(C)=C4)c(O)c2CO1
- inhibition [2]: 46%

SMILES: COc1cc2c(cc1OC)C1CN(C)CC(C2)O1 (stereo unspecified)
- Activity [27]: 95%
- EC50 [28]: 77 mg/kg

SMILES: COc1cc(O)c(C)c2c1[C@H](O)O[C@@H](C)C2
- inhibition at 10 µg/mL [11]: 40.4%

SMILES: COC1(C)Cc2c(C=O)c(O)c(Cc3c(O)c(C=O)c4c(c3O)COC(C)(OC)C4)c(O)c2CO1 (stereo unspecified)
- inhibition [2]: 53%

SMILES: COc1cc2c(c(OC)c1OC)C(C)(c1n[nH]c(=S)n1-c1ccc(C)cc1)OCC2 (stereo unspecified)
- MIC [13]: 6.25 µg/mL (≈ 14.6 µM)
- MIC [14]: 6.25 µg/mL (≈ 14.6 µM)
- MIC [15]: 6.25 µg/mL (≈ 14.6 µM)
- MIC [19]: 6.25 µg/mL (≈ 14.6 µM)

SMILES: O=C1OCC2(CCN(Cc3ccccc3)CC2)c2ccccc21
- inhibition in vivo at 500 µM [9]: 31%
- ED50 [10]: 100 mg/kg

SMILES: CN1CCC2(CC1)COCc1ccccc12
- ED50 [10]: 12 mg/kg

SMILES: c1ccc(CCN2CCC3(CC2)COCc2ccccc23)cc1
- inhibition in vivo at 500 µM [9]: 96%
- ED50 [10]: 54 mg/kg

SMILES: COc1cc2c(cc1OC)C1CNCC(C2)O1 (stereo unspecified)
- Activity [27]: 93%

SMILES: COc1cc(O)c(C)c2c1C(=O)O[C@@H](C)C2
- inhibition at 10 µg/mL [11]: 59.5%

SMILES: COC1=CC(=O)C(C)=C2C[C@H](C)OC=C12
- inhibition at 100 µg/mL [1]: 69%

SMILES: Oc1ccc2c(c1)OCC21Cc2cc(O)c(O)cc2C(O)O1 (stereo unspecified)
- IC50 [29]: 33.3 µM
- IC50 [30]: 78.2 µM
- IC50 [31]: 33.3 µM

SMILES: Clc1ccc2oc(SCC3OCCc4ccccc43)nc2c1 (stereo unspecified)
- IC50 [32]: 6.1 µg/mL (≈ 18.4 µM)

SMILES: COC(=O)[C@]1(C)Cc2cc(OC)c(OC)cc2C2(CCN(C)CC2)O1.Cl
- EC50 [28]: 44 mg/kg

SMILES: CNC(=O)c1ccc2c(c1)CCO[C@H]2CCN1CCN(c2ccc(OC)cc2)CC1
- Ki [33]: 3.7 µM
- Ki [34]: 5.78 µM

SMILES: COC1Cc2ccccc2C2(CCN(CCc3ccccc3)CC2)O1 (stereo unspecified)
- Ratio Ki [35]: 148
- Ki [36]: 0.00207 µM

SMILES: CC(C)NC(C)CC1OCCc2ccccc21 (stereo unspecified)
- inhibition in vivo at 20 mg/kg [6]: 61%

SMILES: CC(CC1OCCc2ccccc21)NCCc1ccccc1 (stereo unspecified)
- inhibition in vivo at 20 mg/kg [6]: 71.3%

SMILES: CC12Cc3cc4c(cc3C(c3ccc(N)cc3)(OCO1)O2)OCO4 (stereo unspecified)
- inhibition at 100 µM [8]: 86%

SMILES: Cc1c(O)cc(O)c2c1[C@H](C)[C@@H](C)O[C@@H]2c1ccc(O)cc1
- IC50 [37]: 22.7 µg/mL (≈ 75.6 µM)

SMILES: COc1cc(O)c(C)c2c1CO[C@@H](C)C2
- inhibition at 10 µg/mL [11]: 3.4%

SMILES: NC[C@@H]1O[C@H](C23CC4CC(CC(C4)C2)C3)Cc2c1ccc(O)c2O
- Ki [38]: 0.0039 µM
- Ki [39]: 1.86 µM

SMILES: CN/C(=N\CCSCc1nc[nH]c1C)NC#N [CIMETIDINE]
- inhibition in vivo at 20 mg/kg [6]: 51.6%
